Source: US20250171474A1, “CRYSTAL FORM OF […]” (Zhejiang Yangli Pharmaceutical Technology Co., Ltd., priority 2022, published 2025)

Legend:
[1] = test system: HepG2-luc orthotopic xenograft tumor; test: In vivo pharmacodynamics on orthotopic xenograft tumor model of human liver cancer HepG2; parameters: species or system Balb/C nude mice; conditions: for Bioluminescence (Day 1) / Bioluminescence (Day 21): mean, n=6 (Table 8); for Bioluminescence (Day 21) / RBL (Day 21), relative tumor signal growth value / T/C (%) (Day 21) / TGI (%) (Day 21) / T/Cweight (%) / Tumor weight (Day 21): Day 21; for T/Cweight (%): TWtreatment/TWvehicle; for Tumor weight (Day 21): mean ± SEM, n=6
Protocol: In this experiment, orthotopic xenograft tumor model of HepG2 in a nude mouse was used to evaluate the anti-tumor effect of the compound.
Female Balb/C nude mice, 6 to 8 weeks old, weighing 18 to 22 g, fetal bovine serum […], EMEM medium (Cat. No. 30-2003), phosphate buffer, Antibiotic-Antimycotic (Cat. No. 15240-062), Matrigel, and trypsin.
1. Preparation of cell culture: HepG2-luc cells were cultured in monolayer in vitro. The culture conditions were that 10% heat-inactivated fetal bovine serum was added to EMEM medium and the cells were cultured in an incubator containing 5% CO2 at 37° C. Digestion with trypsin-EDTA was performed twice a week for passaging. When the cell saturation was 80% to 90%, the cells were digested with trypsin-EDTA, counted, and resuspended in PBS and Matrigel (PBS: Matrigel=1:1), and the density was 166.67×10^6 cells/mL.
2. Tumor cell inoculation and grouping: Animals were anesthetized by intramuscular injection of 60 mg/kg Zoletil 50 and 1.5 mg/kg xylazine. When the animals were under deep anesthesia, the animals were properly fixed, and the abdomen skin was cleaned with 75% alcohol cotton balls. An incision of about 10 mm was cut with surgery, and 0.03 mL (PBS: Matrigel=1:1) of HepG2-luc cells was orthotopically inoculated on the left lobe of the liver of each mouse, and then the incision on the muscle layer was sutured with absorbable catgut, and the incision on the skin was sutured with a stapler. After surgery, the animals were kept warm on a warming blanket until they woke up. To relieve the pain of the animals, 2 mg/kg of meloxicam (administered subcutaneously once a day) would be administered for 3 consecutive days after surgery. 15 animals were randomly selected to detect the growth of the signal. When the signal began to rise, animals were randomly divided into groups according to the value of the bioluminescence signal, and the administration of the drug was started.
(§1) The experimental indicator is whether the tumor growth can be delayed or whether the tumor can be cured. After tumor inoculation, the bioluminescence signal and animal weight were detected once a week, which continued until the end of the observation period. The bioluminescence signal value can be used to calculate T/C (wherein T is the administration group, and C is the average intensity value of bioluminescence of the blank control group at the set time). Calculation formula of tumor growth inhibition rate (TGI): TGI (%)=[1−(Ti−T0)/(Vi−V0)]×100, wherein Ti is the average intensity of bioluminescence of the treatment group at the set time; T0 is the average intensity of bioluminescence at the starting point of administration. Vi is the average intensity of bioluminescence of the blank control group at the set time; V0 is the average intensity of bioluminescence at the starting point of administration.
b. Tumor growth inhibition was calculated by T/Cweight=TWtreatment/TWvehicle.
c. The p values were obtained by analyzing the tumor weight using one-way ANOVA between the vehicle group and the treatment groups.

HepG2 cells = test: Anti-proliferative activity on HepG2 cell line (CellTiter-Glo); type: cell-based, human
Protocol: (§2) DMEM medium, penicillin/streptomycin antibiotics were purchased from Wisent, and fetal bovine serum was purchased from Biosera. CellTiter-Glo (chemiluminescent cell viability assay reagent) reagent was purchased from Promega. The HepG2 cell line was purchased from the Cell Bank of the Chinese Academy of Sciences. Nivo multimode microplate reader (PerkinElmer).
HepG2 cells (liver cancer) were seeded in a white 384-well plate with […] of cell suspension per well containing 1000 HepG2 cells. The cell plate was incubated overnight in a carbon dioxide incubator. The compound to be tested was 3-fold diluted to the ninth concentration with a multi-channel pipette, that is, the compound to be tested was diluted from 200 µM to 30 nM, and an experiment for the sample assayed in duplicate was set up. […] of culture medium was added to the middle plate. According to the corresponding position, […] per well of the gradient-diluted compound was transferred to the middle plate, then […] per well was transferred to the cell plate after mixing well. […] Another cell plate was prepared, and the signal value as the maximum value (Max value in the following equation) was read on the day of drug addition to participate in data analysis. […] A multimode microplate reader was used for reading. […] A multimode microplate reader was used for reading. […]

Hep3B cells = test: Anti-proliferative activity on Hep3B cell line (CellTiter-Glo); type: cell-based
Protocol: as §2, with “EMEM” for “DMEM”, “Hep3B” for “HepG2”
Hep3B cells (liver cancer) were seeded in a white 96-well plate with 80 μL of cell suspension per well containing 3000 Hep3B cells. The cell plate was incubated overnight in a carbon dioxide incubator. The compound to be tested was 5-fold diluted to the ninth concentration with a multi-channel pipette, that is, the compound to be tested was diluted from 2 mM to 5.12 nM, and an experiment for the sample assayed in duplicate was set up. 78 μL of culture medium was added to the middle plate. According to the corresponding position, 2 µL per well of the gradient-diluted compound was transferred to the middle plate, then 20 μL per well was transferred to the cell plate after mixing well. […] Another cell plate was prepared, and the signal value as the maximum value (Max value in the following equation) was read on the day of drug addition to participate in data analysis. […] A multimode microplate reader was used for reading. […] A multimode microplate reader was used for reading. […]

[2] = Animal weight change in the HepG2 orthotopic xenograft model; type: in vivo, Balb/C nude mice; conditions: 1 and 3 mg/kg IV
From the text: as §1

[3] = Group 2, 1 mg/kg IV Day 0, 7, 14
[4] = Group 3, 3 mg/kg IV Day 0, 7, 14

SMILES: O=[N+]([O-])c1cc2c(cc1Oc1cccnc1F)[C@H](OP(=O)(N1CC1)N1CC1)COC2 [Compound of formula (I)]
- inhibitory effect on tumor growth (in words) ([1]; 1 mg/kg, after 21 days of administration): significant inhibitory effect on tumor growth
- Bioluminescence (Day 1) [1, 3]: 3.51E+09 photons/second
- Bioluminescence (Day 21) [1, 3]: 4.35E+09 photons/second
- Bioluminescence signal value of tumor tissue ([1]; Group 2, 1 mg/kg IV, 0 days after administration (Table 10)): 1.47E+09 photons/second
- Bioluminescence signal value of tumor tissue ([1]; Group 2, 1 mg/kg IV, 7 days after administration (Table 10)): 4.34E+09 photons/second
- Bioluminescence signal value of tumor tissue ([1]; Group 2, 1 mg/kg IV, 14 days after administration (Table 10)): 4.76E+09 photons/second
- Bioluminescence signal value of tumor tissue ([1]; Group 2, 1 mg/kg IV, 21 days after administration (Table 10)): 4.52E+09 photons/second
- RBL (Day 21), relative tumor signal growth value ([1]; Group 2, 1 mg/kg IV): 0.98
- T/C (%) (Day 21) ([1]; Group 2, 1 mg/kg IV): 10.04%
- TGI (%) (Day 21) ([1]; Group 2, 1 mg/kg IV): 96.97%
- T/Cweight (%) ([1]; Group 2, 1 mg/kg IV): 15.80%
- Tumor weight (Day 21) ([1]; Group 2, 1 mg/kg IV): 0.090 ± 0.036 g
- Bioluminescence (Day 1) [1, 4]: 3.51E+09 photons/second
- Bioluminescence (Day 21) [1, 4]: 1.81E+09 photons/second
- Bioluminescence signal value of tumor tissue ([1]; Group 3, 3 mg/kg IV, 0 days after administration (Table 10)): 1.47E+09 photons/second
- Bioluminescence signal value of tumor tissue ([1]; Group 3, 3 mg/kg IV, 7 days after administration (Table 10)): 2.77E+09 photons/second
- Bioluminescence signal value of tumor tissue ([1]; Group 3, 3 mg/kg IV, 14 days after administration (Table 10)): 2.59E+09 photons/second
- Bioluminescence signal value of tumor tissue ([1]; Group 3, 3 mg/kg IV, 21 days after administration (Table 10)): 2.16E+09 photons/second
- RBL (Day 21), relative tumor signal growth value ([1]; Group 3, 3 mg/kg IV): 0.41
- T/C (%) (Day 21) ([1]; Group 3, 3 mg/kg IV): 4.22%
- TGI (%) (Day 21) ([1]; Group 3, 3 mg/kg IV): 106.21%
- T/Cweight (%) ([1]; Group 3, 3 mg/kg IV): 10.23%
- Tumor weight (Day 21) ([1]; Group 3, 3 mg/kg IV): 0.058 ± 0.013 g
- inhibitory effect on tumor growth (conclusion, in words) ([1]; HepG2 orthotopic model, 1 and 3 mg/kg IV): significant inhibitory effect on tumor growth
- anti-tumor effect (in words) ([1]; dose increased to 3 mg/kg): significantly enhanced
- anti-proliferative activity on HepG2 (in words) (HepG2 cells; HepG2 with high expression of AKR1C3): excellent anti-proliferative activity
- IC50 (HepG2 cells; Homo sapiens, 120 h, HepG2 (high expression of AKR1C3), 5 days incubation): 7.4 nM
- anti-proliferative activity on Hep3B (in words) (Hep3B cells; Hep3B with low expression of AKR1C3): no anti-proliferative activity
- IC50 (Hep3B cells; Homo sapiens, 72 h, Hep3B (low expression of AKR1C3), 3 days incubation): > 10000 nM
- animal weight in the administration group (in words) [2]: does not decrease significantly
